# Experimental data published in patent US12604900B2, “Penflufen as a wood preservative against wood- destroying basidiomy cetes” (LANXESS Deutschland GmbH, priority 2010, dated 2026).
# Where two headings read alike, the source gives them in different places.
# Experiments:
# Poria placenta [1] = assay: Synergism test (MIC of radial hyphae growth, SI by Kull); format: cell-based
# Experimental: (§1) Mycelium pieces were punched out of a colony of the wood-destroying fungus in question and incubated on a malt extract/peptone-containing nutrient agar at 26° C. The growth of the hyphae with and without active compound was compared. The minimum inhibitory concentration (MIC) stated was the concentration at which the radial hyphae growth was suppressed completely.
# (§2) The synergism was determined using the method described by Kull et al. (F. C. Kull, P. C. Eismann, H. D. Sylvestrowicz, R. L. Mayer, Applied Microbiology 1961, 9, 538-541).
# Lentinus tigrinus [2] = assay: as above; format: cell-based; details: read-out: MIC (ppm) Lentinus tigrinus
# Experimental: as §1, §2
# Coniophora puteana [3] = assay: as above; format: cell-based
# Experimental: as §1, §2
# Coriolus versicolor [4] = assay: as above; format: cell-based; details: Trametes versicolor
# Experimental: as §1, §2
# Lentinus tigrinus [5] = assay: Inhibition test with giant colonies of wood-destroying basidiomycetes; format: cell-based; details: 168 h, 1 ppm active compound, agar, 26° C., about 1 week
# Experimental: (§3) Mycelium pieces were punched out of colonies of Coniophora puteana, Poria placenta, Lentinus tigrinus, Coriolus versicolor and Gloeophyllum trabeum and incubated on an agar nutrient soil at 26° C. The inhibition of the growth of the hyphae on active compound-comprising nutrient soil was compared to the longitudinal growth without addition of active compound and rated as inhibition in percent (incubation time: about 1 week, depending on the fungal growth of the comparative sample without active compound).
# Gloeophyllum trabeum [6] = assay: as above; format: cell-based; details: 168 h, 1 ppm active compound, agar, 26° C., about 1 week
# Experimental: as §3
# Coniophora puteana [7] = assay: as above; format: cell-based; details: 168 h, 1 ppm active compound, agar, 26° C., about 1 week
# Experimental: as §3
# Coriolus versicolor [8] = assay: as above; format: cell-based; details: Trametes versicolor, 168 h; 1 ppm active compound, agar, 26° C., about 1 week
# Experimental: as §3
# Poria placenta [9] = assay: as above; format: cell-based; details: 168 h; 1 ppm active compound, agar, 26° C., about 1 week
# Experimental: as §3
# Coniophora puteana [10] = assay: Activity test analogously to EN113 on drenched pine specimens; details: for Loss of mass [%]: pine, 6 weeks, mean of 6 specimens (untreated: 24)
# Experimental: (§4) Penflufen (I) was tested analogously to the EN113 standard test for activity against wood-destroying fungi. In contrast to the standard test, smaller pieces of wood were used and the pieces of wood were exposed to attack by the fungi for a shorter period of time.
# (§5) To this end, dried test specimen (25×15×4 mm) made of pine (Pinus sylvestris) were in each case vacuum-drenched with solutions of penflufen (I) in toluene. From the concentration of penflufen (I) in the drench solution and the uptake of the drench solution into the test specimen, the amount of active compound taken up by the test specimen (retention) was calculated. The test specimens were dried and then weighed. To prevent falsifying colonisation by foreign pathogens, the test specimen were sterilised with y rays.
# The test specimens were brought into contact with the wood-destroying organism Coniophora puteana and stored for 6 weeks. The test pieces of wood were then cleaned, dried and weighed. This was used to calculate the loss of mass. For each retention, the mean of 6 test specimens was determined.
# Stereum sanguinolentum = assay: Synergism test (MIC of radial hyphae growth, SI by Kull); format: cell-based; details: 2.4 penflufen and tebuconazole, read-out: MIC against Stereum sanguinolentum (ppm)
# Experimental: as §1, §2
# Poria placenta [11] = assay: Activity test analogously to EN113 on drenched pine specimens; details: for Loss of mass [%]: pine, 6 weeks, mean of 6 specimens (untreated: 20)
# Experimental: as §4, §5
# The test specimen were brought into contact with the wood-destroying organism Poria placenta and stored for 6 weeks. The test pieces of wood were then cleaned, dried and weighed. This was used to calculate the loss of mass. For each retention, the mean of 6 test specimens was determined.
# Gloeophyllum trabeum [12] = assay: Synergism test (MIC of radial hyphae growth, SI by Kull); format: cell-based; details: 2.3 penflufen and copper(II) oxide, read-out: MIC against Gloeophyllum trabeum (ppm)
# Experimental: Mycelium pieces were punched out of a colony of the wood-destroying fungus in question and incubated on a malt extract/peptone-containing nutrient agar at 26° C. […] The minimum inhibitory concentration (MIC) stated was the concentration at which the radial hyphae growth was suppressed completely.
# [13] = 2.2 penflufen and fenpropimorph
# [14] = 2.2 penflufen and fenpropimorph, read-out: MIC (ppm) Coniophora puteana
# [15] = 2.5 penflufen and propiconazole, read-out: MIC against Coniophora puteana (ppm)
# [16] = 2.9 penflufen and bifenthrin, read-out: MIC against Coriolus versicolor (ppm)
# [17] = 2.6 penflufen and permethrin, read-out: MIC against Poria placenta (ppm)
# [18] = result in words, EN113-like test
# [19] = retention of penflufen 50 g/m^3
# [20] = 2.1 penflufen and thiabendazole, malt extract/peptone agar 26° C., read-out: MIC against Coriolus versicolor (ppm)
smiles,measurement,setting,value
"CCOc1ccc(C(C)(C)COCc2cccc(Oc3ccccc3)c2)cc1 [etofenprox, reference compound]",MIC,"Poria placenta [1]; 2.7 penflufen and etofenprox, read-out: MIC against Poria placenta (ppm)",> 100 µg/mL
"CC(Cc1ccc(C(C)(C)C)cc1)CN1C[C@@H](C)O[C@@H](C)C1 (stereo partly shown) [fenpropimorph, reference compound]",MIC,Lentinus tigrinus [2]; [13],30 µg/mL
same,MIC,Coniophora puteana [3]; [14],30 µg/mL
"CCCC1COC(Cn2cncn2)(c2ccc(Cl)cc2Cl)O1 (stereo not shown) [propiconazole, reference compound]",MIC,Coniophora puteana [3]; [15],3 µg/mL
"Cc1c(COC(=O)[C@@H]2[C@H](/C=C(\Cl)C(F)(F)F)C2(C)C)cccc1-c1ccccc1 (racemic) [bifenthrin, reference compound]",MIC,Coriolus versicolor [4]; [16],60 µg/mL
"CC1(C)C(C=C(Cl)Cl)C1C(=O)OC(C#N)c1cccc(Oc2ccccc2)c1 (stereo not shown) [cypermethrin, reference compound]",MIC,Coriolus versicolor [4]; read-out: MIC (ppm) Coriolus versicolor,> 100 µg/mL
same,MIC,Poria placenta [1]; read-out: MIC (ppm) Poria placenta,> 100 µg/mL
"CCCN(CCOc1c(Cl)cc(Cl)cc1Cl)C(=O)n1ccnc1 [prochloraz, reference compound]",MIC,Lentinus tigrinus [2],20 µg/mL
same,MIC,Coniophora puteana [3]; read-out: MIC (ppm) Coniophora puteana,> 30 µg/mL
C=C(c1ccccc1NC(=O)c1c(C)nn(C)c1F)C(C)C [III],inhibition at 1 ppm,Lentinus tigrinus [5],37%
same,inhibition at 1 ppm,Gloeophyllum trabeum [6],18%
same,inhibition at 1 ppm,Coniophora puteana [7],25%
same,inhibition at 1 ppm,Coriolus versicolor [8],78%
same,inhibition at 1 ppm,Poria placenta [9],45%
"CC1(C)C(C=C(Cl)Cl)C1C(=O)OCc1cccc(Oc2ccccc2)c1 (stereo not shown) [permethrin, reference compound]",MIC,Poria placenta [1]; [17],> 100 µg/mL
CCCC(C)c1ccccc1NC(=O)c1c(C)nn(C)c1F (stereo not shown) [II],inhibition at 1 ppm,Lentinus tigrinus [5],17%
same,inhibition at 1 ppm,Gloeophyllum trabeum [6],11%
same,inhibition at 1 ppm,Coniophora puteana [7],12%
same,inhibition at 1 ppm,Coriolus versicolor [8],15%
same,inhibition at 1 ppm,Poria placenta [9],3%
Cc1nn(C)c(F)c1C(=O)Nc1ccccc1C(C)CC(C)C (stereo not shown) [penflufen],activity against the wood-destroying fungus Coniophora puteana,Coniophora puteana [10]; [18],very good activity
same,Loss of mass [%],Coniophora puteana [10]; [19],0%
same,Loss of mass [%],Coniophora puteana [10]; retention of penflufen 103 g/m^3,0%
same,MIC,Lentinus tigrinus [2]; [13],0.5 µg/mL
same,MIC,Lentinus tigrinus [2]; 2.8 penflufen and prochloraz,0.3 µg/mL
same,MIC,Stereum sanguinolentum,3 µg/mL
same,MIC,Coniophora puteana [3]; [14],1 µg/mL
same,MIC,Coniophora puteana [3]; [15],3 µg/mL
same,MIC,"Coniophora puteana [3]; 2.8 penflufen and prochloraz, read-out: MIC (ppm) Coniophora puteana",3 µg/mL
same,MIC,"Coriolus versicolor [4]; 2.10 penflufen and cypermethrin, read-out: MIC (ppm) Coriolus versicolor",0.1 µg/mL
same,MIC,Coriolus versicolor [4]; [20],0.3 µg/mL
same,MIC,Coriolus versicolor [4]; [16],0.1 µg/mL
same,MIC,"Poria placenta [1]; 2.10 penflufen and cypermethrin, read-out: MIC (ppm) Poria placenta",0.1 µg/mL
same,MIC,Poria placenta [1]; [17],0.1 µg/mL
same,MIC against Poria placenta (ppm),Poria placenta [1]; 2.7 penflufen and etofenprox,0.1 ppm
same,activity against the wood-destroying fungus Poria placenta,Poria placenta [11]; [18],very good activity
same,Loss of mass [%],Poria placenta [11]; [19],0%
same,Loss of mass [%],Poria placenta [11]; retention of penflufen 102 g/m^3,0%
same,MIC,Gloeophyllum trabeum [12],0.3 µg/mL
same,inhibition at 1 ppm,Lentinus tigrinus [5],100%
same,inhibition at 1 ppm,Gloeophyllum trabeum [6],100%
same,inhibition at 1 ppm,Coniophora puteana [7],100%
same,inhibition at 1 ppm,Coriolus versicolor [8],100%
same,inhibition at 1 ppm,Poria placenta [9],100%
"CC(C)(C)C(O)(CCc1ccc(Cl)cc1)Cn1cncn1 (stereo not shown) [tebuconazole, reference compound]",MIC,Stereum sanguinolentum,6 µg/mL
"c1ccc2[nH]c(-c3cscn3)nc2c1 [thiabendazole, reference compound]",MIC,Coriolus versicolor [4]; [20],3 µg/mL
